Laboratory results taken from article PMC6713104, “New peptide derived antimalaria and antimicrobial agents bearing sulphonamide moiety” (Journal of Enzyme Inhibition and Medicinal Chemistry, 2019).
In brackets after ≈: the same amount, converted by molar mass. Like-named read-outs stand apart in the source and are kept apart here. Non-standard residues stand in square brackets, D forms with d. Residues, ends and D or L forms follow the SMILES beside them. ξ: configuration not given here. *: point of attachment. Tos = Cc1ccc(S(=O)(=O)*)cc1; βNA = c1ccc2cc(N*)ccc2c1; ξA = CC(N)C(=O)O

Legend:
E. coli = test: Antimicrobial MIC, agar cup diffusion; type: cell-based; conditions: Escherichia coli, read-out: MIC (minimum inhibitory concentration)
S. typhi = test: Antimicrobial MIC, agar cup diffusion; type: cell-based; conditions: Salmonella enterica, read-out: MIC (minimum inhibitory concentration)
C. albicans = test: Antimicrobial MIC, agar cup diffusion; type: cell-based; conditions: Candida albicans, read-out: MIC (minimum inhibitory concentration)
A. niger = test: Antimicrobial MIC, agar cup diffusion; type: cell-based; conditions: Aspergillus niger, read-out: MIC (minimum inhibitory concentration)
P. falciparum strain W2 = test: In vitro antimalarial assay; type: cell-based; conditions: Plasmodium falciparum, W2, P. falciparum
[1] = system: Plasmodium berghei infection in mice; test: In vivo antimalaria test; conditions: P. berghei infected mice; for inhibition in vivo at 100 mg/kg / inhibition in vivo at 200 mg/kg: Plasmodium berghei, oral
Procedure: Experimental Design and Treatment of Mice. Methods of Peter et al.[30] and Kalra et al.[31] for antiplasmodial assay against Plasmodium berghei infection in mice with some modifications were employed. About eighty infected mice were randomly divided into five groups, each having […] mice. The inoculum was prepared from a donor mouse with rising parasitemia of 60.42%. After 7 days of infection, animals begin to receive treatment (100 and 200 mg/kg b wt.) of the synthesized compounds (7a–7n) for 12 days with constant check of the percentage of parasitemia after a 4-day interval. Artemisinin (100 and 200 mg/kg body weight.) was given to the other mice in group three as positive control, group four was not treated and group five was not infected. All the compounds and the drugs were given orally by using a standard intragastric tube. For all parasitemia determination, blood samples were collected from tail snip of each mouse and thin smears prepared and stained with 10% Giemsa solution. The uniform fields of each stained slide (for each mouse) were examined under microscope with an oil immersion objective of 100X magnification power and average percent of parasitemia was determined.
To determine the in vivo activity, the compounds were tested against P. berghei NK(65 Strain) infection mice., the animals were obtained from Nigeria institute for Trypanosoma and onchocercarioses Research (NTIR) Vom, Plateau State Nigeria. The permission and approval for the use of animals in this experiment were granted by the Animal Ethics Committee, Federal College of Vetrenary Medical Laboratory, Vom, Plateau State. Method of Peter et al.[30], for antiplasmodial assay against P. berghei in mice with some modification were employed. Artemisimin was used as treated control of the experiments. The percentage inhibition of parasite multiplication was calculated comparing the treated group with untreated group by means of the following formula[39] [(A − B)/A] × 100; where A = parasitaemia in the untreated group and B = parasitemia in the test group. […] Most of the compounds were active against P. berghei after 7 days post-infection by reducing the parasiteamia by at least 40% when in a dose of 100 mg/kg (Table 5). The inhibition of parasitaemia increased on 12th day post infection for almost all the compounds. […] However in consideration of the compounds ability to inhibit parasitaemia to the control drug. […] These compounds should be considered for further studies because of its promising activities.

Liver function tests = type: in vivo; parameters: Glucose: unit not given here; conditions: mice, 10 mg/kg
Excerpt: (§1) Twenty-four hours before the injecting the compounds, the blood sample of five mice was taken and it was also taken after the last day of treatment, the animals were sacrificed by cervical dislocation and the blood samples were collected by heart puncture. The blood samples for haematological parameters (red blood cell (RBC) count, white blood cell (WBC) count, packed cell volume (PCV), and hemoglobin (HGB)) were collected into EDTA bottles and analyzed using an automated machine (Automated CBC Analyzer: Sysmex KX-21). The liver function tests carried out with the blood of the rats fed with the sulfonamide derivatives were aspartate aminotransperase (AST), alanine transaminase (ALT) and alkaline phosphatase (ALP). Standard laboratory procedure according to Reitman and Franke[32] was used for the determination of parameters.

[2] = Renal or kidney function test; type: in vivo; conditions: mice, 10 mg/kg
Excerpt: as §1, with “KX-21). Kidney” for “KX-21). The liver”, “derivatives were, creatinine” for “derivatives were aspartate aminotransperase (AST), alanine transaminase (ALT)”, “and albunim. The method reported by Kaplan” for “and alkaline phosphatase (ALP). Standard laboratory procedure according to Reitman”, “and Tengv[33]” for “and Franke[32]”, “used in” for “used for”, “of creatinine.” for “of parameters.”

Haematological analysis = type: in vivo, mice
Excerpt: Twenty-four hours before the injecting the compounds, the blood sample of five mice was taken and it was also taken after the last day of treatment, the animals were sacrificed by cervical dislocation and the blood samples were collected by heart puncture. The blood samples for haematological parameters (red blood cell (RBC) count, white blood cell (WBC) count, packed cell volume (PCV), and hemoglobin (HGB)) were collected into EDTA bottles and analyzed using an automated machine (Automated CBC Analyzer: Sysmex KX-21).
The blood samples for haematological parameters (red blood cell (RBC) count, white blood cell (WBC) count, packed cell volume (PCV), and haemoglobin (HGB)) were collected into EDTA bottles and analyzed using an automated machine (Automated CBC Analyzer: Sysmex KX-21) (Table 8). From the analysis, even though there is a decrease in the value of RBC, PCV and HB, it is observed that there is no significant changes in the parameters that were analyzed for the control and the test compounds.

B. subtilis = test: Antimicrobial MIC, agar cup diffusion; type: cell-based; conditions: for MIC: Bacillus subtilis, B. subtilis, read-out: MIC (minimum inhibitory concentration)
K. pneumoniae = test: Antimicrobial MIC, agar cup diffusion; type: cell-based; conditions: Klebsiella pneumoniae, read-out: MIC (minimum inhibitory concentration)
[3] = 48 h, >99% of parasites inhibited from developing to schizonts
[4] = 168 h, read-out: % inhibition 7 days post-treatment (100 mg/kg), day 7
[5] = 168 h, read-out: % inhibition 7 days post-treatment (200 mg/kg), day 7
[6] = 288 h, read-out: % inhibition 12 days post-treatment (100 mg/kg), day 12
[7] = 288 h, read-out: % inhibition 12 days post-treatment (200 mg/kg), day 12

Cc1ccc(NC(=O)CNC(=O)C(C)NS(=O)(=O)c2ccccc2)cc1 (centres unmarked) [Compound 7e]
MIC (E. coli): 6330 mg/L (≈ 16900 µM) | MIC (S. typhi): 194 mg/L (≈ 517 µM) | MIC (C. albicans): 28.8 mg/L (≈ 76.7 µM) | MIC (A. niger): 2090 mg/L (≈ 5560 µM) | MIC (P. falciparum strain W2): 30 µM (≈ 11.3 µg/mL) | MIC (P. falciparum strain W2; [3]): 0.05 µM (≈ 0.0188 µg/mL) | ability to inhibit parasitaemia compared to the control drug ([1]; in words): almost the same or better activity compared to the artemisinin | inhibition in vivo at 100 mg/kg [1, 4]: 62.3% | inhibition in vivo at 200 mg/kg [1, 5]: 40.2% | inhibition in vivo at 100 mg/kg [1, 6]: 66.7% | inhibition in vivo at 200 mg/kg [1, 7]: 50.7% | ALT (Liver function tests; After): 22.0 µ/L | AST (Liver function tests; After): 60.5 µ/L | Bilirubin (Liver function tests; After): 0.2 mg/dL | Glucose (Liver function tests; After): 5.0 | T.P. (Liver function tests; After): 4.5 g/dL | ALT (Liver function tests; Before): 24.0 µ/L | AST (Liver function tests; Before): 64.0 µ/L | Bilirubin (Liver function tests; Before): 0.3 mg/dL | Glucose (Liver function tests; Before): 5.8 | T.P. (Liver function tests; Before): 5.8 g/dL | Albumin ([2]; After): 3.5 g/dL | Creatinine ([2]; After): 0.3 mg/dL | Albumin ([2]; Before): 4.1 g/dL | Creatinine ([2]; Before): 0.3 mg/dL | HB (Haematological analysis; After treatment): 11.0 g/dL | PCV (Haematological analysis; After treatment): 35% | RBC (Haematological analysis; After treatment): 6.0 × 10^6 mm^3 | WBC (Haematological analysis; After treatment): 10.5 × 10^3 mm^3 | HB (Haematological analysis; Before treatment): 14.1 g/dL | PCV (Haematological analysis; Before treatment): 36% | RBC (Haematological analysis; Before treatment): 6.85 × 10^6 mm^3 | WBC (Haematological analysis; Before treatment): 12.2 × 10^3 mm^3 | melting point: 160 to 162 °C

Cc1ccc(NC(=O)CNC(=O)C(C)NS(=O)(=O)c2ccc(C)cc2)cc1 (centres unmarked) [Compound 7l, 2–(4-methylphenylsulfonamido)-N-(2-oxo-2-(p-tolylamino)ethyl)propanamide]
MIC (B. subtilis): 245 mg/L (≈ 629 µM) | MIC (E. coli): 169 mg/L (≈ 434 µM) | MIC (S. typhi): 57 mg/L (≈ 146 µM) | MIC (K. pneumoniae): 107 mg/L (≈ 275 µM) | MIC (C. albicans): 174 mg/L (≈ 447 µM) | MIC (A. niger): 123 mg/L (≈ 316 µM) | MIC (P. falciparum strain W2; [3]): 0.93 µM (≈ 0.362 µg/mL) | inhibition in vivo at 100 mg/kg [1, 4]: 38.2% | inhibition in vivo at 200 mg/kg [1, 5]: 60.7% | inhibition in vivo at 100 mg/kg [1, 6]: 41.7% | inhibition in vivo at 200 mg/kg [1, 7]: 74.6% | melting point: 120 to 122 °C

CC(NS(=O)(=O)c1ccccc1)C(=O)NCC(=O)Nc1ccc2ccccc2c1 (centres unmarked) [Compound 7g, N-(2-(naphthalene-2-ylamino)-2-oxoethyl)-2-(phenylsulfonamido)propanamide]
MIC (B. subtilis): 141 mg/L (≈ 343 µM) | activity against Bacillus compared with ciprofloxacin (B. subtilis; in words): greater activity against Bacillus than ciprofloxacin | MIC (S. typhi): 79 mg/L (≈ 192 µM) | MIC (K. pneumoniae): 166 mg/L (≈ 403 µM) | MIC (C. albicans): 29.7 mg/L (≈ 72.2 µM) | MIC (A. niger): 158 mg/L (≈ 384 µM) | MIC (P. falciparum strain W2; [3]): 3.23 µM (≈ 1.33 µg/mL) | inhibition in vivo at 100 mg/kg [1, 4]: 27.5% | inhibition in vivo at 200 mg/kg [1, 5]: 54.7% | inhibition in vivo at 100 mg/kg [1, 6]: 36.8% | inhibition in vivo at 200 mg/kg [1, 7]: 51.9% | melting point: 170 to 172 °C

CC(NS(=O)(=O)c1ccccc1)C(=O)NCC(=O)Nc1cccc(F)c1 (centres unmarked) [Compound 7c]
MIC (B. subtilis): 3470 mg/L (≈ 9140 µM) | MIC (E. coli): 372 mg/L (≈ 980 µM) | MIC (S. typhi): 2690 mg/L (≈ 7090 µM) | MIC (K. pneumoniae): 129 mg/L (≈ 340 µM) | MIC (C. albicans): 3470 mg/L (≈ 9140 µM) | MIC (P. falciparum strain W2; [3]): 0.72 µM (≈ 0.273 µg/mL) | inhibition in vivo at 100 mg/kg [1, 4]: 48.3% | inhibition in vivo at 200 mg/kg [1, 5]: 40.2% | inhibition in vivo at 100 mg/kg [1, 6]: 51.3% | inhibition in vivo at 200 mg/kg [1, 7]: 48.7% | ALT (Liver function tests; After): 23.5 µ/L | AST (Liver function tests; After): 61.5 µ/L | Bilirubin (Liver function tests; After): 0.5 mg/dL | Glucose (Liver function tests; After): 5.0 | T.P. (Liver function tests; After): 5.5 g/dL | ALT (Liver function tests; Before): 20.5 µ/L | AST (Liver function tests; Before): 62.0 µ/L | Bilirubin (Liver function tests; Before): 0.3 mg/dL | Glucose (Liver function tests; Before): 5.6 | T.P. (Liver function tests; Before): 5.8 g/dL | Albumin ([2]; After): 3.0 g/dL | Creatinine ([2]; After): 0.3 mg/dL | Albumin ([2]; Before): 3.5 g/dL | Creatinine ([2]; Before): 0.3 mg/dL | HB (Haematological analysis; After treatment): 9.8 g/dL | PCV (Haematological analysis; After treatment): 33% | RBC (Haematological analysis; After treatment): 6.0 × 10^6 mm^3 | WBC (Haematological analysis; After treatment): 9.0 × 10^3 mm^3 | HB (Haematological analysis; Before treatment): 14.5 g/dL | PCV (Haematological analysis; Before treatment): 38% | RBC (Haematological analysis; Before treatment): 7.5 × 10^6 mm^3 | WBC (Haematological analysis; Before treatment): 10.3 × 10^3 mm^3 | melting point: 125 to 127 °C

Cc1ccc(S(=O)(=O)NC(C)C(=O)NCC(=O)Nc2ccc3ccccc3c2)cc1 (centres unmarked) [Compound 7n, 2–(4-methylphenylsulfonamido)-N-(2-(naphthalene-2-ylamino)-2-oxoethyl)propanamide] (Tos-[ξA]-Gly-βNA)
MIC (E. coli): 123 mg/L (≈ 289 µM) | MIC (S. typhi): 617 mg/L (≈ 1450 µM) | MIC (C. albicans): 155 mg/L (≈ 364 µM) | MIC (A. niger): 39 mg/L (≈ 91.7 µM) | MIC (P. falciparum strain W2; [3]): 2.34 µM (≈ 0.996 µg/mL) | inhibition in vivo at 100 mg/kg [1, 4]: 47.8% | inhibition in vivo at 200 mg/kg [1, 5]: 63.8% | inhibition in vivo at 100 mg/kg [1, 6]: 49.1% | inhibition in vivo at 200 mg/kg [1, 7]: 71.7% | melting point: 174 to 176 °C
